Patent publication US20050054103A1, “Expansion of renewable stem cell populations using modulators of PI 3-kinase” (priority 2003, published 2005)
One block for each compound: values may come before it.

Key:
[1] = test system: HL-60 cells; test: Copper determination in chelator treated cells (atomic absorption); assay type: cell-based, human
Description: Copper Determination: Cells were harvested by centrifugation at 1000×g for 5 minutes. The cell pellet was washed three times by re-suspending the cells in PBS (Ca^++ and Mg^++ free) and centrifugation at 1000×g. An aliquot containing 2×10^6 cells was then transferred into a metal-free Eppendorf tube and the cells were recovered by centrifugation at 1000×g. The cell pellet was re-suspended in 0.03 M ultra-pure nitric acid to give a concentration of 1×10^7 cells/ml. The cells were homogenized with a high shear mixer (polytron, Kinematica, Switzerland) for 1 minutes to disrupt the cell and release intracellular copper content. Cell samples were vortexed before transferring to a vial autosampler and analyzed in duplicate by a Perkin Elmer graphite furnace atomic absorption spectrophotometer at a wavelength of 324.7 nm. The samples were analyzed against copper standard solution prepared from a commercial stock solution that was diluted with 0.03 M ultra pure nitric acid.
(§1) FIG. 44 provides the chemical structure of the various chelators employed in these experiments.

[2] = test system: CD34 cells; test: Transition metal chelators in CD34+ cell liquid cultures (cell number, CD34 cells, clonability); assay type: cell-based, human
Description: The interphase layer of mononuclear cells were collected, washed three times with Ca/Mg free phosphate buffered saline containing 1% bovine serum albumin (BSA). The cells were incubated for 30 min. at 4° C. with murine monoclonal anti CD34 antibody (0.5 μg/10^6 mononuclear cells) and thereafter isolated using the miniMACS apparatus (Miltenyi-Biotec, Bergisch, Gladbach, Germany) according to the manufacturer's protocol.
Culture procedures: For the expansion of progenitor cells, CD34^+ enriched fractions or unseparated mononuclear cells were seeded at about 1-3×10^4 cells/ml in either alpha minimal essential medium containing 10% preselected fetal calf serum (FCS) (both from GIBCO, Grand Island, N.Y.), or serum-free medium (Progenitor-34 medium, Life Technologies, Grand Island, N.Y.). The media were supplemented with a mixture of growth factors and transition metal chelators. The cultures were incubated at 37° C. in an atmosphere of 5% CO2 in air with extra humidity. Half of the medium was changed weekly with fresh medium containing all the supplements.
Cloning potential evaluations: The cloning potential of cells developed in the liquid culture was assayed, at different intervals, in semi-solid medium. The cells were washed and seeded in 35 mm dishes in methylcellulose containing alpha medium supplemented with recombinant growth factors (SCF, G-CSF, GM-CSF and EPO). Following 2 weeks incubation, the cultures were scored with an inverted microscope. Colonies were classified as blast, mixed, erythroid, myeloid, and megakaryocytic, according to their cellular composition.
Morphological assessment: In order to characterize the resulting culture populations, aliquots of cells were deposited on a glass slide (cytocentrifuge, Shandon, Runcorn, UK), fixed and stained in May-Grunwald Giemsa. Other aliquots were stained by benzidine for intracellular hemoglobin.
Immunofluorescence staining: At different intervals, cells from the liquid cultures were assayed for CD34 antigen. Aliquots were harvested, washed and incubated on ice with FITC-labeled anti CD45 monoclonal antibody and either PE-labeled anti CD34 (HPCA-2) monoclonal antibody or PE-labeled control mouse Ig. After incubation, red cells were lysed with lysing solution, while the remaining cells were washed and analyzed by flow cytometer.
Flow cytometry: Cells were analyzed and sorted using FACStar^plus flow cytometer (Becton-Dickinson, Immunofluorometry systems, Mountain View, Calif.). Cells were passed at a rate of 1,000 cells/second through a […] nozzle, using saline as the sheath fluid. […] The PMTs was set at the appropriate voltage. Logarithmic amplification was applied for measurements of fluorescence and linear amplification—for forward light scatter. At least 10^4 cells were analyzed.
Cord blood-derived CD34 cells were plated in liquid culture in the presence of: FL—50 ng/ml, SCF—50 ng/ml, IL-6—50 ng/ml, with or without IL-3—20 ng/ml, with or without TEPA—10 μM. On day 7, the percentage of CD34 cells and the total cell number were determined. Aliquots equivalent to 1×10^3 initiating cells were assayed on days 0 and 7 for colony forming cells (CFU) by cloning in semi-solid medium. CFU expansion represents the ratio of CFU present on day 7 to CFU present on day 0.
CD34^+ cells derived from human neonatal cord blood were purified by immunomagnetic method and then cultured in liquid medium supplemented with cytokines either with or without transition metal chelators. At weekly intervals, the cultures were demi-depopulated by removing half of the culture content (supernatant and cells) and replacing it with fresh medium, cytokines and the chelators. At the indicated weeks the cellular content of the cultures were quantified for total cells (by a manual microscopic/hemocytometric method), for CD34^+ cells (by immuno-flow cytometry) and for clonogenic cells (by cloning the cells in cytokine-supplemented semi-solid medium).

[3] = test system: HL-60 (human myeloid leukemia cell line); test: Inhibition / induction of differentiation and growth inhibition of HL-60 cells by chelators; assay type: cell-based; settings: 1000 nM
Excerpt: as §1

[4] = test system: Lin− c-kit+ Sca-1+ murine hematopoietic precursors; settings: cultured 7 days; cited from earlier work
[5] = test system: CD34+ cells; test: Ex vivo expansion of CD34+ cells with the PI 3-kinase inhibitor Ly294002; assay type: cell-based, human
Description: Mononuclear cell fraction collection and purification: Human blood cells were obtained from umbilical cord blood from female patients following full-term, normal delivery (informed consent was obtained). Samples were collected and processed within 12 hours postpartum. […] Louis, Mo.), sedimented for 30 minutes to remove most red blood cells. The leukocyte-rich fraction was harvested and layered on a Ficoll-Hypaque gradient (1.077 gram/ml; Sigma), and centrifuged at 400 g for 30 minutes. […] Sigma, St. Louis, Mo.). Purification of CD34^+ cells from mononuclear cell fractions: To purify CD34^+ mononuclear cells, the mononuclear cell fraction was subjected to two cycles of immuno-magnetic separation using the MiniMACS® or […]® CD34 Progenitor Cell Isolation Kit (Miltenyi Biotec, Auburn, Calif.) as per manufacturer's recommendations. The purity of the CD34^+ population obtained ranged from 95% to 98%, as determined by flow cytometry (see below). Ex vivo expansion: Purified CD34+ cells were cultured in culture bags (American Fluoroseal Co. Gaithersburg, Md., USA) at a concentration of 1×10^4 cells/ml in MEMα/10% FCS containing the following human recombinant cytokines: […] The cultures were replenished weekly, for three weeks, with the same volume of fresh medium, Ly294002 and growth factors. From week three and up to the termination of the experiments the cultures were weekly demi-depopulated. Cells were counted following staining with trypan blue. At various time points, harvested cells were used to assay the content of colony forming units in culture (CFUc), enumeration of CD34+ cells following re-selection and immunophenotype analysis. Cell morphology was determined on cytospin (Shandon, Pittsburgh, Pa., USA) prepared smears stained with May-Grunwald/Giemsa solutions. Surface antigen analysis: The cells were washed with a PBS solution containing 1% BSA, and stained (at 4° C. for 30 min) with fluorescein isothiocyanate (FITC)- or phycoerythrin (PE)-conjugated antibodies. The cells were then washed in the above buffer and analyzed using a FACScalibur® flow cytometer (Becton Dickinson, San Jose, Calif., USA). The cells were passed at a rate of up to 1000 cells/second, using a 488 nm argon laser beam as the light source for excitation. Emission of 10^4 cells was measured using logarithmic amplification, and analyzed using the CellQuest software (Becton Dickinson). Determination of CD34+ cell content after expansion: The content of CD34+ cells was determined from a purified, re-selected fraction of expanded hematopoietic progenitor cells, using the MiniMACS CD34 progenitor cell isolation kit (Miltenyi Biotec) according to the manufacturers recommendations. In brief, mononuclear cells derived from one portion of the culture were subjected to two cycles of immunomagnetic bead separation. The purity of the CD34+ population thus obtained was 95-98%, as evaluated by flow cytometry. CD34+ cell content of the entire culture was calculated as follows: number of CD34+ cells recovered following repurification after expansion multiplied by the culture volume/volume of the portion of the culture subjected to repurification (CD34+total=CD34+ in sample×total culture volume/volume of repurified sample). Up to week three the cultures were topped weekly with fresh medium. Therefore, the culture volume was measured directly. From week three and on (due to demi-depopulation), the culture volume was calculating by multiplying the actual volume with the number of passages. Fold expansion was calculated by dividing the CD34+ cell content of the culture by the number of inoculated CD34+ cells (Fold expansion=total CD34+ content/CD34+ inoculated). […] Determination of early CD34+ cell subsets: The percentages of the early CD34+ cell subsets were determined as well from the re-purified CD34+ cell fraction. […]

[6] = cited from earlier work
[7] = test system: cord blood-derived CD34+ cells; test: Copper-chelating peptides in CD34 cell cultures (proliferation, clonability); assay type: cell-based, human; settings: after 7 weeks; peptides 10 μM each, G-CSF and GM-CSF 10 ng/ml each
Description: CD34 cells selection: Peripheral blood “buffy coat” cells derived from a whole blood unit, peripheral blood cells obtained following leukapheresis, or blood cells were layered on Ficoll-Hypaque (density 1.077 g/ml) and centrifuged at 1,000×g for 20 minutes at room temperature. The interphase layer of mononuclear cells were collected, washed three times with Ca/Mg free phosphate buffered saline containing 1% bovine serum albumin (BSA). The cells were incubated for 30 minutes at 4° C. with murine monoclonal anti CD34 antibody (0.5 μg/10^6 […] cells) and thereafter isolated using the miniMACA apparatus (Miltenyi-Biotec, Bergisch, Gladbach, Germany) according to the manufacturer's protocol.
Culture procedures: For the expansion of progenitor cells, CD34^+ enriched fractions were seeded at 1×10^4 cells/ml in alpha minimal essential medium containing 10% preselected fetal calf serum (FCS) (both from GIBCO, Grand Island, N.Y.). The medium was supplemented with a mixture of growth factors and Copper chelators. The cultures were incubated at 37° C. in an atmosphere of 5% CO2 in air with extra humidity. Half of the medium was changed weekly with fresh medium containing all the supplements.
The cloning potential of the cultured cells was assayed in semi-solid medium. The cells were washed and seeded in 35 mm dishes in methylcellulose containing alpha medium supplemented with 30% FCS and further with recombinant growth factors (stem cell factor (SCF), G-CSF, GM-CSF and erythropoietin (EPO)). Following two week incubation, the cultures were scored with an inverted microscope. Colonies were classified as blast, mixed, erythroid, myeloid, and megakaryocytic, according to their cellular composition.
The effect of Copper-chelating peptides on proliferation and clonability in CD34 cell cultures: Cultures were initiated with 10^4 cord blood-derived CD34^+ cells by plating purified cells in liquid medium in the presence of SCF, FLT3 and IL-6 (50 ng/ml each) and the Copper-binding peptides, Gly-Gly-His (GGH) or Gly-His-Lys (GHL) (10 μM each), or the late-acting cytokines G-CSF and GM-CSF (10 ng/ml each). At weekly intervals, the cultures were demi-depopulated and supplemented with fresh medium, cytokines and the peptides. After 7 weeks, cells were counted and assayed for CFUc.

[8] = Cytokines + Ly294002, two weeks
[9] = Cytokines + Ly294002, two weeks, percentage of re-purified CD34+ cells

Average Intracellular ppb Cu ([1]; 20 μM chelator): 27.5 ppb
Average Intracellular ppb Cu ([1]; 100 μM chelator): 73.9 ppb
Compound: C1CNCCNCCNCCN1 [1,4,7,10-Tetraaza cyclododecane]
Average Intracellular ppb Cu ([1]; 500 μM chelator): Toxic
activity at 20 µM ([1]; Homo sapiens, HL-60, 20 μM chelator, read-out: Average Intracellular Cu (% of control)): 56%
activity at 100 µM ([1]; Homo sapiens, HL-60, 100 μM chelator, read-out: Average Intracellular Cu (% of control)): 150%
effect on differentiation of CD34+ cells [2]: stimulate differentiation
Differentiation Induction [3]: Toxic

Compound: Cc1ccc(C2=CCC(C)(C)c3ccc(C#Cc4ccc(C(=O)O)cc4)cc32)cc1 [AGN 193109]
increase in the pre-CFU-S population [4]: approximately 6 fold

Compound: O=c1cc(N2CCOCC2)oc2c(-c3ccccc3)cccc12 [LY294002]
CD34 + CD38- ×10^4 [5, 8]: 4.8 ×10^4
CD34 + Lin- ×10^4 [5, 8]: 1.3 ×10^4
CD34 × 10^4 [5, 8]: 53 × 10^4
TNC × 10^4 [5, 8]: 155 × 10^4
CD34 + CD38- (%) [5, 9]: 9.1%
CD34 + Lin- (%) [5, 9]: 2.5%
absolute content of CD34+CD38− cells ([5]; two weeks): 9×10^4 cells
absolute content of CD34+CD38−Lin− cells ([5]; two weeks): 2.5×10^4 cells
content of late progenitor, CD34+ cells ([5]; two weeks, treated cultures): 65×10^4 cells
frequency of CD34+ cells among the total cultured cells ([5]; two-weeks treatment): 0.3
membrane permeability [6]: membrane permeable

Compound: Gly-Gly-His [GGH]
effect on differentiation of CD34+ cells [2]: stimulate differentiation
decrease of cell number [7]: 10%
decrease of clonogenic potential (CFUc) [7]: 80%

Compound: Gly-His-Lys [GHL]
effect on differentiation of CD34+ cells [2]: stimulate differentiation
decrease of cell number [7]: 25%
decrease of clonogenic potential (CFUc) [7]: 78%
